Measured values from patent publication US6518243B1, “Desleucyl glycopeptide antibiotics and methods of making same” (Trustees of Princeton University, priority 1999, dated 2003).

What was measured:
E. faceium (ATCC 49624) = test: Zone of inhibition screen, 96 well agar array format;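 note: score 3 means fourfold and score 4 sixteenfold the reference zone size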; format: cell-based, E. faecium; conditions: zone of inhibition relative to 1 mg/ml stock solution of p-chlorobiphenylvancomycin
Outline: (§1)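 Each compound was tested for antibacterial activity against a shared bacterial panel, with screening carried out on agar in a 96-well array.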

[1] = tested on: S. epidermidis (ATCC 12228); test: as above; format: cell-based; design: scale not given here; conditions: zone of inhibition relative to 1 mg/ml stock solution of p-chlorobiphenylvancomycin
Outline: as §1

E. faecium CL 4931 = test: MIC determination in BHI media, OD600; format: cell-based; conditions: BHI + 0.1% casamino acids, 18 hours at 37° C., ≧90% OD600 inhibition
Outline: (§2)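 Log-phase bacteria were diluted to about 5×10^5 CFU/ml and exposed to test compounds serially diluted in DMSO. Following 18 hours at 37° C, growth was read by plate absorbance to assign the MIC.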

E. Faecalis CL 4877 = test: MIC determination in BHI media, OD600; format: cell-based; conditions: BHI + 0.1% casamino acids, 18 hours at 37° C., ≧90% OD600 inhibition
Outline: as §2

S aureus ATCC 29213 = test: MIC determination in BHI media, OD600; format: cell-based; conditions: BHI + 0.1% casamino acids, 18 hours at 37° C., ≧90% OD600 inhibition
Outline: as §2

E. faecium ATCC 49624 = test: MIC determination in BHI media, OD600; format: cell-based; conditions: BHI + 0.1% casamino acids, 18 hours at 37° C., ≧90% OD600 inhibition
Outline: as §2

S. Aureus ATCC 33591 = test: MIC determination in BHI media, OD600; format: cell-based; conditions: BHI + 0.1% casamino acids, 18 hours at 37° C., ≧90% OD600 inhibition
Outline: as §2

S. aureus (ATCC 29213) = test: Zone of inhibition screen, 96 well agar array format; format: cell-based; design: scale not given here; conditions: zone of inhibition relative to 1 mg/ml stock solution of p-chlorobiphenylvancomycin
Outline: as §1

MIC E. faecium CL 4931 (E. faecium CL 4931) [µg/mL] | MIC E. faecalis CL 4877 (E. Faecalis CL 4877) [µg/mL] | MIC S. aureus ATCC 29213 (S aureus ATCC 29213) [µg/mL] | MIC E. faecium ATCC 49624 (E. faecium ATCC 49624) [µg/mL] | MIC S. aureus ATCC 33591 (S. Aureus ATCC 33591) [µg/mL] | Structure (SMILES) | zone score, E. faecium ATCC 49624 (E. faceium (ATCC 49624)) | zone score, S. epidermidis ATCC 12228 [1] | zone score, S. aureus ATCC 29213 (S. aureus (ATCC 29213))
25 | 25 | 0.78 | 0.78 | – | CC1OC(OC2C(Oc3c4cc5cc3Oc3ccc(cc3Cl)C(O)C3NC(=O)C(NC(=O)C5NC(=O)C(CC(N)=O)NC(=O)C(NC(=O)C(N)CC[S+](C)[O-])C(O)c5ccc(c(Cl)c5)O4)c4ccc(O)c(c4)-c4c(O)cc(O)cc4C(C(=O)O)NC3=O)OC(CO)C(O)C2O)CC(C)(NCc2ccc(-c3ccc(Cl)cc3)cc2)C1O (stereo not drawn) [Compound 81] | 2 | 2 | –
25 | 25 | – | 0.78 | – | C[C@H]1O[C@H](O[C@H]2[C@H](Oc3c4cc5cc3Oc3ccc(cc3Cl)[C@@H](O)[C@@H](NC(=O)[C@@H]3CC(OC(C)(C)C)CN3)C(=O)N[C@@H](CC(N)=O)C(=O)N[C@H]5C(=O)N[C@H]3C(=O)N[C@H](C(=O)N[C@@H](C(=O)O)c5cc(O)cc(O)c5-c5cc3ccc5O)[C@H](O)c3ccc(c(Cl)c3)O4)O[C@H](CO)[C@@H](O)[C@@H]2O)C[C@@](C)(NCc2ccc(-c3ccc(Cl)cc3)cc2)[C@H]1O (stereo partly drawn) [Compound 30] | 2 | – | –
25 | 25 | 0.78 | 0.78 | 0.78 | C[C@H](N)C(=O)N[C@H]1C(=O)N[C@@H](CC(N)=O)C(=O)N[C@H]2C(=O)N[C@H]3C(=O)N[C@H](C(=O)N[C@@H](C(=O)O)c4cc(O)cc(O)c4-c4cc3ccc4O)[C@H](O)c3ccc(c(Cl)c3)Oc3cc2cc(c3O[C@@H]2O[C@H](CO)[C@@H](O)[C@H](O)[C@H]2O[C@@H]2C[C@@](C)(NCc3ccc(-c4ccc(Cl)cc4)cc3)[C@@H](O)[C@@H](C)O2)Oc2ccc(cc2Cl)[C@H]1O [Compound 1] | 2 | – | –
25 | 25 | – | 0.78 | – | CC1OC(OC2C(Oc3c4cc5cc3Oc3ccc(cc3Cl)C(O)C3NC(=O)C(NC(=O)C5NC(=O)C(CC(N)=O)NC(=O)C(NC(=O)C(N)CCCCNC=O)C(O)c5ccc(c(Cl)c5)O4)c4ccc(O)c(c4)-c4c(O)cc(O)cc4C(C(=O)O)NC3=O)OC(CO)C(O)C2O)CC(C)(NCc2ccc(-c3ccc(Cl)cc3)cc2)C1O (stereo not drawn) [Compound 79] | 2 | – | 2
25 | 25 | 0.39 | 0.25 | 0.39 | COCC(N)C(=O)NC1C(=O)NC(CC(N)=O)C(=O)NC2C(=O)NC3C(=O)NC(C(=O)NC(C(=O)O)c4cc(O)cc(O)c4-c4cc3ccc4O)C(O)c3ccc(c(Cl)c3)Oc3cc2cc(c3OC2OC(CO)C(O)C(O)C2OC2CC(C)(NCc3ccc(-c4ccc(Cl)cc4)cc3)C(O)C(C)O2)Oc2ccc(cc2Cl)C1O (stereo not drawn) [Compound 525] | – | – | –
> 25 | > 25 | 0.78 | – | 0.78 | CC1OC(OC2C(Oc3c4cc5cc3Oc3ccc(cc3Cl)C(O)C3NC(=O)C(NC(=O)C5NC(=O)C(CC(N)=O)NC(=O)C(NC(=O)CNC(=O)CNC(=O)c5ccc([N+](=O)[O-])cc5)C(O)c5ccc(c(Cl)c5)O4)c4ccc(O)c(c4)-c4c(O)cc(O)cc4C(C(=O)O)NC3=O)OC(CO)C(O)C2O)CC(C)(NCc2ccc(-c3ccc(Cl)cc3)cc2)C1O (stereo not drawn) [Compound 108] | – | – | 2

Structure (SMILES) | MIC E. faecium CL 4931 (E. faecium CL 4931) [µg/mL] | MIC E. faecalis CL 4877 (E. Faecalis CL 4877) [µg/mL] | MIC S. aureus ATCC 29213 (S aureus ATCC 29213) [µg/mL] | MIC E. faecium ATCC 49624 (E. faecium ATCC 49624) [µg/mL] | MIC S. aureus ATCC 33591 (S. Aureus ATCC 33591) [µg/mL] | zone score, E. faecium ATCC 49624 (E. faceium (ATCC 49624)) | zone score, S. epidermidis ATCC 12228 [1] | zone score, S. aureus ATCC 29213 (S. aureus (ATCC 29213))
CN[C@H](CC(C)C)C(=O)N[C@H]1C(=O)N[C@@H](CC(N)=O)C(=O)N[C@H]2C(=O)N[C@H]3C(=O)N[C@H](C(=O)N[C@H](C(=O)O)c4cc(O)cc(O)c4-c4cc3ccc4O)[C@H](O)c3ccc(c(Cl)c3)Oc3cc2cc(c3O[C@@H]2O[C@H](CO)[C@@H](O)[C@H](O)[C@H]2O[C@H]2C[C@](C)(N)[C@H](O)[C@H](C)O2)Oc2ccc(cc2Cl)[C@H]1O [Compound 0, Vancomycin, reference compound] | > 250 | > 250 | 1.25 | 1.25 | 2.5 | – | – | –
